Literature values in US20020177624A1, “Acetate-lactate buffering vaginal gel and for method of making same and treating bacterial vaginosis” (priority 2001, published 2002).

System: bacterial vaginosis
Conditions: oral administration

Structure (SMILES): Cc1ncc([N+](=O)[O-])n1CCO [metronidazole]
- success of treatment of bacterial vaginosis: often highly successful
